Consider three compounds from patent publication US6500816B1, “Remedies for photochemotherapy” (Nippon Kayaku Kabushiki Kaisha, priority 1998, dated 2002).

Series [1] is described as follows: Maximum absorption wavelength of the compounds. Type of series: physicochemical. An excerpt: Some representative examples of the compounds utilizable as the photochemotherapeutic agent according to the present invention are shown below.
For series [2] the following is noted: background art statement; cited from earlier work.

In the case of `CCN(CC)c1ccc(C(=CC=CC(=C2C=CC(=[N+](CC)CC)C=C2)c2ccc(N(CC)CC)cc2)c2ccc(N(CC)CC)cc2)cc1` [Polymethine type 1], the “Maximum absorption wavelength (λmax)” value in series [1] was 820 nm.
Turning to `CC1CC(C=CC=C/C=C2\CC(C)Cc3c(-c4ccccc4)cc(-c4ccccc4)[o+]c32)=C2OC(c3ccccc3)=CC(c3ccccc3)=C2C1` (stereo not drawn) [Polymethine type 4], the “Maximum absorption wavelength (λmax)” value in series [1] came to 1045 nm.
In the case of dihematoporphyrin [Photofrin], the maximum absorption wavelength in series [2] is reported as 363 nm.
